Results reported in BindingDB's records for doi:10.1016/s0028-3908(05)80009-7 (Universit&Eacute, 1994).
pKi: −log10 of the molar value. Where a SMILES comes first, the peptide text is derived from it. [ ]: non-standard residue; d: D form. ξ: configuration not given here. Ile(3ξ) = CCC(C)[C@H](N)C(=O)O

Target: T1, Pituitary adenylate cyclase-activating polypeptide (Rattus norvegicus, UniProt P13589)
T1 sequence (P13589 whole entry): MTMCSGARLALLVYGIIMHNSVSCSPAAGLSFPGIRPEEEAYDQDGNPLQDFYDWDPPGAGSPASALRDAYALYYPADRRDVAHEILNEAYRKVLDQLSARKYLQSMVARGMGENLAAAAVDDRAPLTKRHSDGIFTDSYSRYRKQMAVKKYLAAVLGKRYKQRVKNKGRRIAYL

pKi	SMILES
9.30	CC[C@H](C)[C@H](NC(=O)CNC(=O)[C@H](CC(=O)O)NC(=O)[C@H](C)NC(=O)[C@@H](N)Cc1cnc[nH]1)C(=O)N[C@@H](Cc1ccccc1)C(=O)N[C@H](C(=O)N[C@@H](CC(=O)O)C(=O)N[C@@H](CO)C(=O)N[C@@H](Cc1ccc(O)cc1)C(=O)N[C@@H](CO)C(=O)N[C@@H](CCCNC(=N)N)C(=O)N[C@@H](Cc1ccc(O)cc1)C(=O)N[C@@H](CCCNC(=N)N)C(=O)N[C@@H](CCCCN)C(=O)N[C@@H](CCC(N)=O)C(=O)N[C@@H](CCSC)C(=O)N[C@@H](C)C(=O)N[C@H](C(=O)N[C@@H](CCCCN)C(=O)N[C@@H](CCCCN)C(=O)N[C@@H](Cc1ccc(O)cc1)C(=O)N[C@@H](CC(C)C)C(=O)N[C@@H](C)C(=O)N[C@@H](C)C(=O)N[C@H](C(=O)N[C@@H](CC(C)C)C(=O)NCC(=O)N[C@@H](CCCCN)C(=O)N[C@@H](CCCNC(=N)N)C(=O)N[C@@H](Cc1ccc(O)cc1)C(=O)N[C@@H](CCCCN)C(=O)N[C@@H](CCC(N)=O)C(=O)N[C@@H](CCCNC(=N)N)C(=O)N[C@H](C(=O)N[C@@H](CCCCN)C(=O)N[C@@H](CC(N)=O)C(=O)N[C@@H](CCCCN)C(N)=O)C(C)C)C(C)C)C(C)C)[C@@H](C)O
8.70	CSCC[C@H](NC(=O)[C@H](CCC(N)=O)NC(=O)[C@H](CCCCN)NC(=O)[C@H](CCCNC(=N)N)NC(=O)[C@H](Cc1ccc(O)cc1)NC(=O)[C@H](CCCNC(=N)N)NC(=O)[C@H](CO)NC(=O)[C@H](Cc1ccc(O)cc1)NC(=O)[C@H](CO)NC(=O)[C@H](CC(=O)O)NC(=O)[C@@H](NC(=O)[C@@H](N)Cc1ccccc1)[C@@H](C)O)C(=O)N[C@@H](C)C(=O)N[C@H](C(=O)N[C@@H](CCCCN)C(=O)N[C@@H](CCCCN)C(=O)N[C@@H](Cc1ccc(O)cc1)C(=O)N[C@@H](CC(C)C)C(=O)N[C@@H](C)C(=O)N[C@@H](C)C(=O)N[C@H](C(=O)N[C@@H](CC(C)C)C(=O)NCC(=O)N[C@@H](CCCCN)C(=O)N[C@@H](CCCNC(=N)N)C(=O)N[C@@H](Cc1ccc(O)cc1)C(=O)N[C@@H](CCCCN)C(=O)N[C@@H](CCC(N)=O)C(=O)N[C@@H](CCCNC(=N)N)C(=O)N[C@H](C(=O)N[C@@H](CCCCN)C(=O)N[C@@H](CC(N)=O)C(=O)N[C@@H](CCCCN)C(N)=O)C(C)C)C(C)C)C(C)C
8.52	CCC(C)[C@H](NC(=O)CNC(=O)[C@H](CC(=O)O)NC(=O)[C@@H](N)CO)C(=O)N[C@@H](Cc1ccccc1)C(=O)N[C@H](C(=O)N[C@@H](CC(=O)O)C(=O)N[C@@H](CO)C(=O)N[C@@H](Cc1ccc(O)cc1)C(=O)N[C@@H](CO)C(=O)N[C@@H](CCCN=C(N)N)C(=O)N[C@@H](Cc1ccc(O)cc1)C(=O)N[C@@H](CCCN=C(N)N)C(=O)N[C@@H](CCCCN)C(=O)N[C@@H](CCC(N)=O)C(=O)N[C@@H](CCSC)C(=O)N[C@@H](C)C(=O)N[C@H](C(=O)N[C@@H](CCCCN)C(=O)N[C@@H](CCCCN)C(=O)N[C@@H](Cc1ccc(O)cc1)C(=O)N[C@@H](CC(C)C)C(=O)N[C@@H](C)C(=O)N[C@@H](C)C(=O)N[C@H](C(=O)N[C@@H](CC(C)C)C(=O)NCC(=O)N[C@@H](CCCCN)C(=O)N[C@@H](CCCN=C(N)N)C(=O)N[C@@H](Cc1ccc(O)cc1)C(=O)N[C@@H](CCCCN)C(=O)N[C@@H](CCC(N)=O)C(=O)N[C@@H](CCCN=C(N)N)C(=O)N[C@H](C(=O)N[C@@H](CCCCN)C(=O)N[C@@H](CC(N)=O)C(=O)N[C@@H](CCCCN)C(N)=O)C(C)C)C(C)C)C(C)C)[C@@H](C)O (some centres undefined) [PACAP(2-38)] (H-SDG[Ile(3ξ)]FTDSYSRYRKQMAVKKYLAAVLGKRYKQRVKNK-NH2)
5.52	CCC(C)[C@H](NC(=O)CNC(=O)[C@@H](N)CC(=O)O)C(=O)N[C@@H](Cc1ccccc1)C(=O)N[C@H](C(=O)N[C@@H](CC(=O)O)C(=O)N[C@@H](CO)C(=O)N[C@@H](Cc1ccc(O)cc1)C(=O)N[C@@H](CO)C(=O)N[C@@H](CCCN=C(N)N)C(=O)N[C@@H](Cc1ccc(O)cc1)C(=O)N[C@@H](CCCN=C(N)N)C(=O)N[C@@H](CCCCN)C(=O)N[C@@H](CCC(N)=O)C(=O)N[C@@H](CCSC)C(=O)N[C@@H](C)C(=O)N[C@H](C(=O)N[C@@H](CCCCN)C(=O)N[C@@H](CCCCN)C(=O)N[C@@H](Cc1ccc(O)cc1)C(=O)N[C@@H](CC(C)C)C(=O)N[C@@H](C)C(=O)N[C@@H](C)C(=O)N[C@H](C(=O)N[C@@H](CC(C)C)C(N)=O)C(C)C)C(C)C)[C@@H](C)O (some centres undefined) [PACAP(3-27)] (H-DG[Ile(3ξ)]FTDSYSRYRKQMAVKKYLAAVL-NH2)
8.00	CCC(C)[C@H](NC(=O)CNC(=O)[C@@H](N)CC(=O)O)C(=O)N[C@@H](Cc1ccccc1)C(=O)N[C@H](C(=O)N[C@@H](CC(=O)O)C(=O)N[C@@H](CO)C(=O)N[C@@H](Cc1ccc(O)cc1)C(=O)N[C@@H](CO)C(=O)N[C@@H](CCCN=C(N)N)C(=O)N[C@@H](Cc1ccc(O)cc1)C(=O)N[C@@H](CCCN=C(N)N)C(=O)N[C@@H](CCCCN)C(=O)N[C@@H](CCC(N)=O)C(=O)N[C@@H](CCSC)C(=O)N[C@@H](C)C(=O)N[C@H](C(=O)N[C@@H](CCCCN)C(=O)N[C@@H](CCCCN)C(=O)N[C@@H](Cc1ccc(O)cc1)C(=O)N[C@@H](CC(C)C)C(=O)N[C@@H](C)C(=O)N[C@@H](C)C(=O)N[C@H](C(=O)N[C@@H](CC(C)C)C(=O)NCC(=O)N[C@@H](CCCCN)C(=O)N[C@@H](CCCN=C(N)N)C(=O)N[C@@H](Cc1ccc(O)cc1)C(=O)N[C@@H](CCCCN)C(=O)N[C@@H](CCC(N)=O)C(=O)N[C@@H](CCCN=C(N)N)C(=O)N[C@H](C(=O)N[C@@H](CCCCN)C(=O)N[C@@H](CC(N)=O)C(=O)N[C@@H](CCCCN)C(N)=O)C(C)C)C(C)C)C(C)C)[C@@H](C)O (some centres undefined) [PACAP(3-38)] (H-DG[Ile(3ξ)]FTDSYSRYRKQMAVKKYLAAVLGKRYKQRVKNK-NH2)
7.70	CCC(C)[C@H](NC(=O)CN)C(=O)N[C@@H](Cc1ccccc1)C(=O)N[C@H](C(=O)N[C@@H](CC(=O)O)C(=O)N[C@@H](CO)C(=O)N[C@@H](Cc1ccc(O)cc1)C(=O)N[C@@H](CO)C(=O)N[C@@H](CCCN=C(N)N)C(=O)N[C@@H](Cc1ccc(O)cc1)C(=O)N[C@@H](CCCN=C(N)N)C(=O)N[C@@H](CCCCN)C(=O)N[C@@H](CCC(N)=O)C(=O)N[C@@H](CCSC)C(=O)N[C@@H](C)C(=O)N[C@H](C(=O)N[C@@H](CCCCN)C(=O)N[C@@H](CCCCN)C(=O)N[C@@H](Cc1ccc(O)cc1)C(=O)N[C@@H](CC(C)C)C(=O)N[C@@H](C)C(=O)N[C@@H](C)C(=O)N[C@H](C(=O)N[C@@H](CC(C)C)C(=O)NCC(=O)N[C@@H](CCCCN)C(=O)N[C@@H](CCCN=C(N)N)C(=O)N[C@@H](Cc1ccc(O)cc1)C(=O)N[C@@H](CCCCN)C(=O)N[C@@H](CCC(N)=O)C(=O)N[C@@H](CCCN=C(N)N)C(=O)N[C@H](C(=O)N[C@@H](CCCCN)C(=O)N[C@@H](CC(N)=O)C(=O)N[C@@H](CCCCN)C(N)=O)C(C)C)C(C)C)C(C)C)[C@@H](C)O (some centres undefined) [PACAP(4-38)] (H-G[Ile(3ξ)]FTDSYSRYRKQMAVKKYLAAVLGKRYKQRVKNK-NH2)
6.00	CCC(C)[C@H](N)C(=O)N[C@@H](Cc1ccccc1)C(=O)N[C@H](C(=O)N[C@@H](CC(=O)O)C(=O)N[C@@H](CO)C(=O)N[C@@H](Cc1ccc(O)cc1)C(=O)N[C@@H](CO)C(=O)N[C@@H](CCCN=C(N)N)C(=O)N[C@@H](Cc1ccc(O)cc1)C(=O)N[C@@H](CCCN=C(N)N)C(=O)N[C@@H](CCCCN)C(=O)N[C@@H](CCC(N)=O)C(=O)N[C@@H](CCSC)C(=O)N[C@@H](C)C(=O)N[C@H](C(=O)N[C@@H](CCCCN)C(=O)N[C@@H](CCCCN)C(=O)N[C@@H](Cc1ccc(O)cc1)C(=O)N[C@@H](CC(C)C)C(=O)N[C@@H](C)C(=O)N[C@@H](C)C(=O)N[C@H](C(=O)N[C@@H](CC(C)C)C(N)=O)C(C)C)C(C)C)[C@@H](C)O (some centres undefined) [PACAP(5-27)] (H-[Ile(3ξ)]FTDSYSRYRKQMAVKKYLAAVL-NH2)
8.05	CCC(C)[C@H](N)C(=O)N[C@@H](Cc1ccccc1)C(=O)N[C@H](C(=O)N[C@@H](CC(=O)O)C(=O)N[C@@H](CO)C(=O)N[C@@H](Cc1ccc(O)cc1)C(=O)N[C@@H](CO)C(=O)N[C@@H](CCCN=C(N)N)C(=O)N[C@@H](Cc1ccc(O)cc1)C(=O)N[C@@H](CCCN=C(N)N)C(=O)N[C@@H](CCCCN)C(=O)N[C@@H](CCC(N)=O)C(=O)N[C@@H](CCSC)C(=O)N[C@@H](C)C(=O)N[C@H](C(=O)N[C@@H](CCCCN)C(=O)N[C@@H](CCCCN)C(=O)N[C@@H](Cc1ccc(O)cc1)C(=O)N[C@@H](CC(C)C)C(=O)N[C@@H](C)C(=O)N[C@@H](C)C(=O)N[C@H](C(=O)N[C@@H](CC(C)C)C(=O)NCC(=O)N[C@@H](CCCCN)C(=O)N[C@@H](CCCN=C(N)N)C(=O)N[C@@H](Cc1ccc(O)cc1)C(=O)N[C@@H](CCCCN)C(=O)N[C@@H](CCC(N)=O)C(=O)N[C@@H](CCCN=C(N)N)C(=O)N[C@H](C(=O)N[C@@H](CCCCN)C(=O)N[C@@H](CC(N)=O)C(=O)N[C@@H](CCCCN)C(N)=O)C(C)C)C(C)C)C(C)C)[C@@H](C)O (some centres undefined) [PACAP(5-38)] (H-[Ile(3ξ)]FTDSYSRYRKQMAVKKYLAAVLGKRYKQRVKNK-NH2)

SMILES	pKi
[C][C][C]([C])[C@H]([N]C(=O)[C][N]C(=O)[C@H]([C][C]C([O])=O)[N]C(=O)[C@@H]([N])[C][O])C(=O)[N][C@@H]([C]c1ccccc1)C(=O)[N][C@H](C(=O)[N][C@@H]([C]C([O])=O)C(=O)[N][C@@H]([C][O])C(=O)[N][C@@H]([C]c1ccc([O])cc1)C(=O)[N][C@@H]([C][O])C(=O)[N][C@@H]([C][C][C]N=C([N])[N])C(=O)[N][C@@H]([C]c1ccc([O])cc1)C(=O)[N][C@@H]([C][C][C]N=C([N])[N])C(=O)[N][C@@H]([C][C][C][C][N])C(=O)[N][C@@H]([C][C]C([N])=O)C(=O)[N][C@@H]([C][C]S[C])C(=O)[N][C@@H]([C])C(=O)[N][C@@H]([C]([C])[C])C(=O)[N][C@@H]([C][C][C][C][N])C(=O)[N][C@@H]([C][C][C][C][N])C(=O)[N][C@@H]([C]c1ccc([O])cc1)C(=O)[N][C@@H]([C][C]([C])[C])C(=O)[N][C@@H]([C])C(=O)[N][C@@H]([C])C(=O)[N][C@@H]([C]([C])[C])C(=O)[N][C@@H]([C][C]([C])[C])C([N])=O)[C@@H]([C])[O] [PACAP(2-27)]	7.52
